Laboratory results from patent publication US10392368B2, “Pyrazolo and triazolo bicyclic compounds as JAK kinase inhibitors” (THERAVANCE BIOPHARMA R&D IP, LLC, priority 2017, dated 2019).
Like-named read-outs stand apart in the source and are kept apart here.

What was measured:
JAK1 = target: T1, JAK1 (Homo sapiens, UniProt P23458); assay: Biochemical JAK1 kinase assay (LanthaScreen); details: for Ki: read-out: JAK 1 (pKi) (converted)
T1 construct: GST; purchased Life Technologies
In short: (§1)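 TR-FRET readout (520/495 nm) using Tb-labelled pTyr701 antibody after EDTA stop, following 1 h ATP-started phosphorylation of GFP-STAT1 by recombinant GST-JAK. Compounds preincubated 1 h with enzyme and substrate; pIC50 from 4-parameter fit, Cheng-Prusoff gives pKi.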

JAK3 = target: T2, JAK3 (Homo sapiens, UniProt P52333); assay: Biochemical JAK3 kinase assay (LanthaScreen); set-up: GST; purchased Life Technologies; details: for Ki: read-out: JAK 3 (pKi) (converted)
T2 sequence (P52333 1-1124): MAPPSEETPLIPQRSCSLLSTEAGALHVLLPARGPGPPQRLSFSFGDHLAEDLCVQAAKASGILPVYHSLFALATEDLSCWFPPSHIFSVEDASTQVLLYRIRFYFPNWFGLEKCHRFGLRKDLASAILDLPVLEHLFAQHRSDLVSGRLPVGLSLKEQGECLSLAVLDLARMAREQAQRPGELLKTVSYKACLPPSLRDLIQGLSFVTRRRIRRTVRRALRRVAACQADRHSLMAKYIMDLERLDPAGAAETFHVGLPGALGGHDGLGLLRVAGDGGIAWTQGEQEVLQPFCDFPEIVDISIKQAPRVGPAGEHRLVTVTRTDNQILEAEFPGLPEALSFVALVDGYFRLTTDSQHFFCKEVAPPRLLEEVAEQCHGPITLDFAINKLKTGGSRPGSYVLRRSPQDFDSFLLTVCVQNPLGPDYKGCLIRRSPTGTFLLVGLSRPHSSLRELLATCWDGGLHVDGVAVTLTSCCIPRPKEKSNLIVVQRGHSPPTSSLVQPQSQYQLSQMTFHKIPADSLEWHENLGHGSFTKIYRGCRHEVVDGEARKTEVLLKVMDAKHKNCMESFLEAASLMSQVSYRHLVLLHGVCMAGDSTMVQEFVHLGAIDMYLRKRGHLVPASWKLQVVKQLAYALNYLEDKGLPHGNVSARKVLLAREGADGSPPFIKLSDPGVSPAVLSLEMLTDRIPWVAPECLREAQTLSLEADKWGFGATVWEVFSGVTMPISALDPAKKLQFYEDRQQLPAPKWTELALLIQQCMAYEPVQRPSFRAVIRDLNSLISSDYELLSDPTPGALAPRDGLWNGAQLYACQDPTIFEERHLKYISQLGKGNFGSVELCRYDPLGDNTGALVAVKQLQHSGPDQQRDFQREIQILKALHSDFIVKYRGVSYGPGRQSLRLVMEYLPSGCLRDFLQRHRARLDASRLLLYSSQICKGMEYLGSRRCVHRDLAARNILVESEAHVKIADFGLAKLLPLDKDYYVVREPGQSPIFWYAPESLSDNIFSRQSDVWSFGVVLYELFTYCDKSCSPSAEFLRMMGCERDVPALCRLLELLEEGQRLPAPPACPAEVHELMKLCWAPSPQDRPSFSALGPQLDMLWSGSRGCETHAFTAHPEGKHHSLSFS
In short: as §1

[1] = tested on: IL-2 stimulated pSTAT5 in Tall-1 T cells; assay: Cellular JAK3 potency assay: inhibition of IL-2 stimulated pSTAT5 in Tall-1 T cells; format: cell-based, human; details: for IC50: Homo sapiens, read-out: Tall-1 (pIC50) (converted); for Tall-1 (pIC50): IL-2 stimulated pSTAT5, Tall-1 T cells
In short: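 Tall-1 human T cells were preincubated with compound for 1 h at 37° C, then stimulated with IL-2 (300 ng/ml final) for 30 min. STAT5 phosphorylation in lysates was read by AlphaLisa bead emission, and IC50 from inhibition curves is given as pIC50 (mean±SD).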

[2] = selectivity JAK3 over JAK1, difference of pKi
[3] = TALL-1, IL-2 stimulated pSTAT5, Tall-1 T cells
[4] = selectivity: difference of pKi JAK3 and pKi JAK1
[5] = TALL-1, IL-2 stimulated pSTAT5 in Tall-1 T cells

T1 sequence (P23458 whole entry): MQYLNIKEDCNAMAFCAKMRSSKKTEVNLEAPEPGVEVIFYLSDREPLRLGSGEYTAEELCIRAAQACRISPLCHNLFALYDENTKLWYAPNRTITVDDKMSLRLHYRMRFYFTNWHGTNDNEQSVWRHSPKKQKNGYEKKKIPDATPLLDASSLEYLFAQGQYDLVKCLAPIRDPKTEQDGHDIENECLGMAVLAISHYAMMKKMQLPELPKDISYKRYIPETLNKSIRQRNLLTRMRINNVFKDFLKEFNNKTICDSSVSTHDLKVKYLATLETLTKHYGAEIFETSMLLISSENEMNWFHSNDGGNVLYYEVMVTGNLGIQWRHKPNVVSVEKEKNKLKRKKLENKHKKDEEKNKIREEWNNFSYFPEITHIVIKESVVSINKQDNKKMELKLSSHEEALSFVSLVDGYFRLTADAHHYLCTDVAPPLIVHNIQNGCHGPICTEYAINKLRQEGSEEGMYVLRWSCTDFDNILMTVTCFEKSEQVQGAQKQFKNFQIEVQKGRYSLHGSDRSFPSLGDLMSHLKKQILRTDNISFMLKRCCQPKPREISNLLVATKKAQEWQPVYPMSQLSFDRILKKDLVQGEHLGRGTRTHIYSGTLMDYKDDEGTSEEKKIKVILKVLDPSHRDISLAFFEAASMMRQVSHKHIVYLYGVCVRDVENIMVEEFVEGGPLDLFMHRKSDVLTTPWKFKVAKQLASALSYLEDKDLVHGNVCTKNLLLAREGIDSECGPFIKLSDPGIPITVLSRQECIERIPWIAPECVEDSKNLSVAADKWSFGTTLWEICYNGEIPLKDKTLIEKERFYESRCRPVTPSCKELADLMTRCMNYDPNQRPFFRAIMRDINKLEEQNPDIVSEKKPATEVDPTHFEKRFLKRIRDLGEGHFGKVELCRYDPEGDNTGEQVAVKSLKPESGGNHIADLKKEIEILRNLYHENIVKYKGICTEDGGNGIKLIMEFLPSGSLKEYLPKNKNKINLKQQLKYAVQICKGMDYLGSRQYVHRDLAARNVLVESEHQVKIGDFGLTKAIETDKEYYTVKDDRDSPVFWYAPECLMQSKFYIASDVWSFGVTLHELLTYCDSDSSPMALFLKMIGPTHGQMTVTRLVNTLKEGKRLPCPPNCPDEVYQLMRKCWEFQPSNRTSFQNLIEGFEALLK

Structure (SMILES) | Ki (JAK1) [nM] | Ki (JAK3) [nM] | JAK3 (pKi)-JAK1 (pKi) (JAK3; [2]) | IC50 [1, 3] [nM] | JAK 1 (pKi) (JAK1) | JAK 3 (pKi) (JAK3) | Tall-1 (pIC50) [1] | JAK3 (pKi)-JAK1 (pKi) (JAK3; [4]) | IC50 [1, 5] [nM]
C=CC(=O)N1CCC[C@@H](C(=O)Nc2cc(-c3ccc(O)cc3)cc3[nH]ncc23)C1 [Compound 12-55] | > 100 | < 0.1 | A (a value of 3 or above) | 31.6 to 200 |  |  |  |  | 
C=CC(=O)N1CCC[C@H](C(=O)Nc2cc(-c3ccc(O)cc3)cc3[nH]ncc23)C1 [Compound 12-56] | > 100 | < 0.1 | A (a value of 3 or above) | 31.6 to 200 |  |  |  |  | 
C=CC(=O)N1CCC(C(=O)Nc2cc(-c3ccc(O)cc3)cc3[nH]ncc23)CC1 [Compound 12-59] | > 100 | < 0.1 | A (a value of 3 or above) | 31.6 to 200 |  |  |  |  | 
C=CC(=O)N1C[C@H](C(=O)Nc2cc(-c3ccc(O)cc3)cc3[nH]ncc23)OC(C)(C)C1 [Compound 12-62] | > 100 | < 0.1 | A (a value of 3 or above) | 31.6 to 200 |  |  |  |  | 
C=CC(=O)N1CC[C@H]1C(=O)Nc1cc(-c2ccc(O)cc2)cc2[nH]ncc12 [Compound 12-69] | > 100 | < 0.1 | A (a value of 3 or above) | 31.6 to 200 |  |  |  |  | 
C=CC(=O)N1CCO[C@@H](C(=O)Nc2cc(-c3ccc(O)c(F)c3)cc3[nH]ncc23)C1 [Compound 13-3] |  |  | A (a value of 3 or above) |  | E (a pKi value of 7 or below (Ki of 100 nM or above)) | A (a pKi value≥10 (Ki≤0.1 nM)) | A (a pIC50 value≥7.5 (IC50≤32 nM)) |  | 
C=CC(=O)N1CC2(CCC2Oc2nc(-c3ccc(O)c(Cl)c3)nc3[nH]ncc23)C1 (stereo not drawn) [Compound 13-17] |  |  | A (a value of 3 or above) |  | E (a pKi value of 7 or below (Ki of 100 nM or above)) | A (a pKi value≥10 (Ki≤0.1 nM)) | B (a pIC50 value between 6.7 (included) and 7.5 (IC50 between 200 nM and 32 nM)) |  | 
C=CC(=O)N1CC2(CCC2Oc2nc(-c3ccc(O)c(F)c3)nc3[nH]ncc23)C1 (stereo not drawn) [Compound 13-18] |  |  | A (a value of 3 or above) |  | E (a pKi value of 7 or below (Ki of 100 nM or above)) | B (a pKi value between 9 and 10 (Ki between 1 nM and 0.1 nM)) | B (a pIC50 value between 6.7 (included) and 7.5 (IC50 between 200 nM and 32 nM)) |  | 
CN(C)C/C=C/C(=O)N1CCC(COc2cc(-c3ccc(O)c(Cl)c3)cc3[nH]ncc23)CC1 [Compound 14-3] |  |  | B (a value of 2.3 to 3) |  | E (a pKi value of 7 or below (Ki of 100 nM or above)) | B (a pKi value between 9 and 10 (Ki between 1 nM and 0.1 nM)) | B (a pIC50 value between 6.7 (included) and 7.5 (IC50 between 200 nM and 32 nM)) |  | 
CN(C)C/C=C/C(=O)N1CCC(COc2cc(-c3ccc(O)c(F)c3)cc3[nH]ncc23)CC1 [Compound 14-4] |  |  | B (a value of 2.3 to 3) |  | D (a pKi value between 7 and 8 (Ki between 100 nM and 10 nM)) | B (a pKi value between 9 and 10 (Ki between 1 nM and 0.1 nM)) | B (a pIC50 value between 6.7 (included) and 7.5 (IC50 between 200 nM and 32 nM)) |  | 
C=CC(=O)N1CCC(COc2cc(-c3ccc(O)c(F)c3)cc3[nH]ncc23)CC1 [Compound 14-5] |  |  | B (a value of 2.3 to 3) |  | D (a pKi value between 7 and 8 (Ki between 100 nM and 10 nM)) | B (a pKi value between 9 and 10 (Ki between 1 nM and 0.1 nM)) | A (a pIC50 value≥7.5 (IC50≤32 nM)) |  | 
C=CC(=O)N1CCC(COc2nc(-c3ccc(O)cc3)cc3[nH]ncc23)CC1 [Compound 14-6] |  |  | B (a value of 2.3 to 3) |  | D (a pKi value between 7 and 8 (Ki between 100 nM and 10 nM)) | A (a pKi value≥10 (Ki≤0.1 nM)) | A (a pIC50 value≥7.5 (IC50≤32 nM)) |  | 
C=CC(=O)N1CCC(COc2nc(-c3ccc(O)c(Cl)c3)cc3[nH]ncc23)CC1 [Compound 14-7] |  |  | B (a value of 2.3 to 3) |  | D (a pKi value between 7 and 8 (Ki between 100 nM and 10 nM)) | A (a pKi value≥10 (Ki≤0.1 nM)) | A (a pIC50 value≥7.5 (IC50≤32 nM)) |  | 
C=CC(=O)N1CCC(COc2nc(-c3ccc(O)c(F)c3)cc3[nH]ncc23)CC1 [Compound 14-8] |  |  | B (a value of 2.3 to 3) |  | D (a pKi value between 7 and 8 (Ki between 100 nM and 10 nM)) | A (a pKi value≥10 (Ki≤0.1 nM)) | A (a pIC50 value≥7.5 (IC50≤32 nM)) |  | 
CN(C)C/C=C/C(=O)N1CCC(COc2nc(-c3ccc(O)c(Cl)c3)cc3[nH]ncc23)CC1 [Compound 14-10] |  |  | C (a value of 1.8 to 2.3) |  | D (a pKi value between 7 and 8 (Ki between 100 nM and 10 nM)) | B (a pKi value between 9 and 10 (Ki between 1 nM and 0.1 nM)) | C (a pIC50 value between 6 and 6.7 (IC50 between 1 μM and 200 nM)) |  | 
CN(C)C/C=C/C(=O)N1CCC(COc2nc(-c3ccc(O)c(F)c3)cc3[nH]ncc23)CC1 [Compound 14-11] |  |  | B (a value of 2.3 to 3) |  | D (a pKi value between 7 and 8 (Ki between 100 nM and 10 nM)) | B (a pKi value between 9 and 10 (Ki between 1 nM and 0.1 nM)) | C (a pIC50 value between 6 and 6.7 (IC50 between 1 μM and 200 nM)) |  | 
CN1CCC[C@@H]1/C=C/C(=O)N1CC[C@H](Oc2cc(-c3ccc(O)cc3)cc3[nH]ncc23)C1 [Compound 15, (E)-1-((S)-3-((6-(4-hydroxyphenyl)-1H-indazol-4-yl)oxy)pyrrolidin-1-yl)-3-((R)-1-methylpyrrolidin-2-yl)prop-2-en-1-one] | > 100 | 0.1 to 1 |  |  |  |  |  | A (a value of 3 or above) | 200 to 1000
CN(C)C/C=C/C(=O)N1CC2(CC(Oc3cc(-c4ccc(O)c(Cl)c4)cc4[nH]ncc34)C2)C1 [Compound 15-4] |  |  | A (a value of 3 or above) |  | E (a pKi value of 7 or below (Ki of 100 nM or above)) | A (a pKi value≥10 (Ki≤0.1 nM)) | B (a pIC50 value between 6.7 (included) and 7.5 (IC50 between 200 nM and 32 nM)) |  | 
CN(C)C/C=C/C(=O)N1CC2(CC(Oc3nc(-c4ccc(O)cc4)cc4[nH]ncc34)C2)C1 [Compound 15-6] |  |  | B (a value of 2.3 to 3) |  | D (a pKi value between 7 and 8 (Ki between 100 nM and 10 nM)) | A (a pKi value≥10 (Ki≤0.1 nM)) | C (a pIC50 value between 6 and 6.7 (IC50 between 1 μM and 200 nM)) |  | 
C=CC(=O)N1CC2(CC(Oc3cc(-c4ccc(O)cc4)nc4[nH]ncc34)C2)C1 [Compound 15-8] |  |  | B (a value of 2.3 to 3) |  | D (a pKi value between 7 and 8 (Ki between 100 nM and 10 nM)) | B (a pKi value between 9 and 10 (Ki between 1 nM and 0.1 nM)) | B (a pIC50 value between 6.7 (included) and 7.5 (IC50 between 200 nM and 32 nM)) |  | 
C=C(CN(C)C)C(=O)N1CC[C@H](Oc2cc(-c3ccc(O)cc3)cc3[nH]ncc23)C1 [Compound 16, (S)-2-((dimethylamino)methyl)-1-(3-((6-(4-hydroxyphenyl)-1H-indazol-4-yl)oxy)pyrrolidin-1-yl)prop-2-en-1-one] | > 100 | 0.1 to 1 |  |  |  |  |  | A (a value of 3 or above) | 31.6 to 200
